Consider 15 compounds from paper PMC9233935 (Journal of medicinal chemistry, 2022).

Values after ≈ are worked out from the molar mass of the structure shown. Read-outs that look alike come from different tables or passages of the source.

In one assay the target is Mtb gyrase (Mycobacterium tuberculosis, UniProt P9WG45+P9WG47). Kind of assay: biochemical. The format is biochemical.
For the next assay, the system named is M. tuberculosis H37Rv. Nature of the assay: microbe, parasite or virus in culture. The class given is cell-based, Mycobacterium tuberculosis. To be noted: for MIC: Mycobacterium tuberculosis, H37RV, read-out: Mtb MIC.

Mtb gyrase, sequence (P9WG45 whole entry, looked up): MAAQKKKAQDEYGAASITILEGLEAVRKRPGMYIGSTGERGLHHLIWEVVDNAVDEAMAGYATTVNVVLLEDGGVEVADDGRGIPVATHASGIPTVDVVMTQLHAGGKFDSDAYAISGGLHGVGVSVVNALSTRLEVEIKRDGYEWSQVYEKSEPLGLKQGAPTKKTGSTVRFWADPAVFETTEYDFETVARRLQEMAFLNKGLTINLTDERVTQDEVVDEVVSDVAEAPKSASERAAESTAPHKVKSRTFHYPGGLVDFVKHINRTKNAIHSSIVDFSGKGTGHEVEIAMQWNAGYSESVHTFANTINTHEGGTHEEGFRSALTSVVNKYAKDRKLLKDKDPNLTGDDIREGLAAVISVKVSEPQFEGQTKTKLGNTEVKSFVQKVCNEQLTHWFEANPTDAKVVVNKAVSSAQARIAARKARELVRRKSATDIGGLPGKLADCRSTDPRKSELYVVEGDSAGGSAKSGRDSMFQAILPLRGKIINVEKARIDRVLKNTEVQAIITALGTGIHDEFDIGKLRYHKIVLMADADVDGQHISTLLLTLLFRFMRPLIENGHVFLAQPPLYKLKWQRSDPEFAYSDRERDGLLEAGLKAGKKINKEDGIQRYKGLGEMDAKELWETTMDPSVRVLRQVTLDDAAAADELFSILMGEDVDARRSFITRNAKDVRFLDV
Mtb gyrase, sequence (P9WG47 whole entry, looked up): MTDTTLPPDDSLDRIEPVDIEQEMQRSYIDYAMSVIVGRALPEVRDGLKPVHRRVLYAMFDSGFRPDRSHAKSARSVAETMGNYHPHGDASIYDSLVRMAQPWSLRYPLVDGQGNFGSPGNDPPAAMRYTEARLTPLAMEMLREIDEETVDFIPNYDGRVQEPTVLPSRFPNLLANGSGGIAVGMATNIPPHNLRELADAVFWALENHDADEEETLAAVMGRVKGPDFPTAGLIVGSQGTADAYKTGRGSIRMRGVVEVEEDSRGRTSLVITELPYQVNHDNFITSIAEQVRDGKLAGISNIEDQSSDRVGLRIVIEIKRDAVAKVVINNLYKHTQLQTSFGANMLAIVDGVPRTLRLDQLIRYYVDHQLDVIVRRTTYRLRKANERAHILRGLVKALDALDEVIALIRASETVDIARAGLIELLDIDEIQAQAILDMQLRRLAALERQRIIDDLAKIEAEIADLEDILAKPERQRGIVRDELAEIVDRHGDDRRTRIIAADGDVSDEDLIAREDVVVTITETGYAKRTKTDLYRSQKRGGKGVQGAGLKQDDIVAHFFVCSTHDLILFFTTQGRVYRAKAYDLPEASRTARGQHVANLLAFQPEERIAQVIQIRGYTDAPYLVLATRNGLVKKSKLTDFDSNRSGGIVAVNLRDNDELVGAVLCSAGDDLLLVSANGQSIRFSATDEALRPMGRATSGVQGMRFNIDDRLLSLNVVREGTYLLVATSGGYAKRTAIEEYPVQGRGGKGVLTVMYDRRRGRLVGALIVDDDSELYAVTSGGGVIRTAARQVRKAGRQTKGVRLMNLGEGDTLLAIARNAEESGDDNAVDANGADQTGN

On to `C[C@@H]1CN2c3c(cc4c(N5CC[C@H](CO)C5)noc4c3F)CC3(C(=O)NC(=O)NC3=O)[C@H]2[C@H](C)O1` [Compound 14, (2R,4S,4aS)-11-fluoro-8-((S)-3-(hydroxymethyl)pyrrolidin-1-yl)-2,4-dimethyl-1,2,4,4a-tetrahydro-2’H,6H-spiro[isoxazolo[4,5-g][1,4]oxazino[4,3-a]quinoline-5,5’-pyrimidine]-2’,4’,6’(1’H,3’H)-trione], for which the “Mtb gyrase IC50 fold higher (less potent) than moxifloxacin” value on Mtb gyrase is at most 2 fold.

Consider `C[C@@H]1CN2c3c(cc4c(N5CC[C@@](C)(O)C5)noc4c3F)CC3(C(=O)NC(=O)NC3=O)[C@H]2[C@H](C)O1` [Compound 15, 11-fluoro-8-(3-hydroxy-3-methylpyrrolidin-1-yl)-2,4-dimethyl-1,2,4,4a-tetrahydro-2’H,6H-spiro[isoxazolo[4,5-g][1,4]oxazino[4,3-a]quinoline-5,5’-pyrimidine]-2’,4’,6’(1’H,3’H)-trione], for which, in the assay on M. tuberculosis H37Rv (192 h), the MIC was above 125 µM.

With `C[C@@H]1CN2c3c(cc4c(N5CC[C@H](C#N)C5)noc4c3F)CC3(C(=O)NC(=O)NC3=O)[C@H]2[C@H](C)O1` [Compound 19, (S)-1-((2R,4S,4aS)-11-fluoro-2,4-dimethyl-2’,4’,6’-trioxo-1,1’,2,3’,4,4a,4’,6’-octahydro-2’H,6H-spiro[isoxazolo[4,5-g][1,4]oxazino[4,3-a]quinoline-5,5’-pyrimidin]-8-yl)pyrrolidine-3-carbonitrile], the “Mtb gyrase IC50 fold higher (less potent) than moxifloxacin” value on Mtb gyrase is reported as at most 2 fold. Take `C[C@@H]1CN2c3c(cc4c(OC[C@@H]5CCC(=O)N5C)noc4c3F)CC3(C(=O)NC(=O)NC3=O)[C@H]2[C@H](C)O1` [Compound 25, (2R,4S,4aS)-11-fluoro-2,4-dimethyl-8-(((S)-1-methyl-5-oxopyrrolidin-2-yl)methoxy)-1,2,4,4a-tetrahydro-2’H,6H-spiro[isoxazolo[4,5-g][1,4]oxazino[4,3-a]quinoline-5,5’-pyrimidine]-2’,4’,6’(1’H,3’H)-trione]: the “fold less active against Mtb than 23” value in the assay with M. tuberculosis H37Rv stood at 4 fold.

For `C[C@@H]1CN2c3c(cc4c(OC[C@@H]5CCC(=O)O5)noc4c3F)CC3(C(=O)NC(=O)NC3=O)[C@H]2[C@H](C)O1` [Compound 26, (2R,4S,4aS)-11-fluoro-2,4-dimethyl-8-(((S)-5-oxotetrahydrofuran-2-yl)methoxy)-1,2,4,4a-tetrahydro-2’H,6H-spiro[isoxazolo[4,5-g][1,4]oxazino[4,3-a]quinoline-5,5’-pyrimidine]-2’,4’,6’(1’H,3’H)-trione], the “fold less active against Mtb than 23” value with M. tuberculosis H37Rv is on record as 2- to 4 fold. The same measure, in the same setting: in the case of `C[C@@H]1CN2c3c(cc4c(OC[C@H]5CCC(=O)O5)noc4c3F)CC3(C(=O)NC(=O)NC3=O)[C@H]2[C@H](C)O1` [Compound 27, (2R,4S,4aS)-11-fluoro-2,4-dimethyl-8-(((R)-5-oxotetrahydrofuran-2-yl)methoxy)-1,2,4,4a-tetrahydro-2’H,6H-spiro[isoxazolo[4,5-g][1,4]oxazino[4,3-a]quinoline-5,5’-pyrimidine]-2’,4’,6’(1’H,3’H)-trione] it was 2- to 4 fold. Consider `C[C@@H]1CN2c3c(cc4c(OC[C@H]5COC(=O)N5)noc4c3F)CC3(C(=O)NC(=O)NC3=O)[C@H]2[C@H](C)O1` [Compound 29, (2R,4S,4aS)-11-fluoro-2,4-dimethyl-8-(((S)-2-oxooxazolidin-4-yl)methoxy)-1,2,4,4a-tetrahydro-2’H,6H-spiro[isoxazolo[4,5-g][1,4]oxazino[4,3-a]quinoline-5,5’-pyrimidine]-2’,4’,6’(1’H,3’H)-trione], for which, in the assay on M. tuberculosis H37Rv, the “Mtb MIC” value was 2.0 µM and the MIC was determined as 2 µM (≈ 1.01 µg/mL). On to `C[C@@H]1CN2c3c(cc4c(OC[C@H]5CNC(=O)C5)noc4c3F)CC3(C(=O)NC(=O)NC3=O)[C@H]2[C@H](C)O1` [Compound 31, (2R,4S,4aS)-11-fluoro-2,4-dimethyl-8-(((R)-5-oxopyrrolidin-3-yl)methoxy)-1,2,4,4a-tetrahydro-2’H,6H-spiro[isoxazolo[4,5-g][1,4]oxazino[4,3-a]quinoline-5,5’-pyrimidine]-2’,4’,6’(1’H,3’H)-trione], for which, in the assay with M. tuberculosis H37Rv, the “Mtb MIC” value was determined as 2.0 µM and the MIC came to 2 µM (≈ 1 µg/mL). Regarding `C[C@@H]1CN2c3c(cc4c(OCC[C@@H]5CCC(=O)N5)noc4c3F)CC3(C(=O)NC(=O)NC3=O)[C@H]2[C@H](C)O1` [Compound 32, (2R,4S,4aS)-11-fluoro-2,4-dimethyl-8-(2-((S)-5-oxopyrrolidin-2-yl)ethoxy)-1,2,4,4a-tetrahydro-2’H,6H-spiro[isoxazolo[4,5-g][1,4]oxazino[4,3-a]quinoline-5,5’-pyrimidine]-2’,4’,6’(1’H,3’H)-trione], in the assay on M. tuberculosis H37Rv, the “fold less active against Mtb than 23” value is reported as ~ 4 fold.

The compound `C[C@@H]1CN2c3c(cc4c(N5C(=O)OC[C@@H]5C)noc4c3F)CC3(C(=O)NC(=O)NC3=O)[C@H]2[C@H](C)N1O` [Compound 35, (2R,4S,4aS)-11-fluoro-3-hydroxy-2,4-dimethyl-8-((S)-4-methyl-2-oxooxazolidin-3-yl)-2,3,4,4a-tetrahydro-1H,2’H,6H-spiro[isoxazolo[4,5-g]pyrazino[1,2-a]quinoline-5,5’-pyrimidine]-2’,4’,6’(1’H,3’H)-trione] returned an IC50 at Mtb gyrase of 207 µM. Compound `CC(=O)N1[C@H](C)CN2c3c(cc4c(N5C(=O)OC[C@@H]5C)noc4c3F)CC3(C(=O)NC(=O)NC3=O)[C@H]2[C@@H]1C` [Compound 36, (2R,4S,4aS)-3-acetyl-11-fluoro-2,4-dimethyl-8-((S)-4-methyl-2-oxooxazolidin-3-yl)-2,3,4,4a-tetrahydro-1H,2’H,6H-spiro[isoxazolo[4,5-g]pyrazino[1,2-a]quinoline-5,5’-pyrimidine]-2’,4’,6’(1’H,3’H)-trione] had an IC50 on Mtb gyrase above 1000 µM. On to `C[C@@H]1CN2c3c(cc4c(N5C(=O)OC[C@@H]5C)noc4c3F)CC3(C(=O)NC(=O)NC3=O)[C@H]2[C@H](C)N1C#N` [Compound 38, (2R,4S,4aS)-11-fluoro-2,4-dimethyl-8-((S)-4-methyl-2-oxooxazolidin-3-yl)-2’,4’,6’-trioxo-1,1’,2,3’,4,4a,4’,6’-octahydro-2’H,3H,6H-spiro[isoxazolo[4,5-g]pyrazino[1,2-a]quinoline-5,5’-pyrimidine]-3-carbonitrile], for which, in the assay with M. tuberculosis H37Rv, the “fold more active against Mtb than matched pair zoliflodacin” value is given as around 2 fold.

On to `C[C@@H]1CN2c3c(cc4c(-n5cncn5)noc4c3F)CC3(C(=O)NC(=O)NC3=O)[C@H]2[C@H](C)N1C#N` [Compound 39, 11-fluoro-2,4-dimethyl-2’,4’,6’-trioxo-8-(1H-1,2,4-triazol-1-yl)-1,1’,2,3’,4,4a,4’,6’-octahydro-2’H,3H,6H-spiro[isoxazolo[4,5-g]pyrazino[1,2-a]quinoline-5,5’-pyrimidine]-3-carbonitrile], for which the “fold more active against Mtb than matched pair 7” value with M. tuberculosis H37Rv is 2 fold. Besides, the MIC in the assay on M. tuberculosis H37Rv (192 h) worked out at 0.9 µM (≈ 0.431 µg/mL). With `Cc1nnc(-c2noc3c(F)c4c(cc23)CC2(C(=O)NC(=O)NC2=O)[C@H]2[C@H](C)[C@@H](O)[C@H](C)CN42)o1` [Compound 45, (2R,3S,4S,4aR)-11-fluoro-3-hydroxy-2,4-dimethyl-8-(5-methyl-1,3,4-oxadiazol-2-yl)-2,3,4,4a-tetrahydro-1H,2’H,6H-spiro[isoxazolo[4,5-g]pyrido[1,2-a]quinoline-5,5’-pyrimidine]-2’,4’,6’(1’H,3’H)-trione], the “fold reduction in Mtb activity relative to matched pair 5” value in the assay with M. tuberculosis H37Rv is 10 fold. `C[C@@H]1CN2c3c(cc4c(N5C(=O)OC[C@@H]5C)noc4c3F)CC3(C(=O)NC(=O)NC3=O)[C@H]2[C@H](C)O1` [Zoliflodacin 4, zoliflodacin, reference compound]: the MIC with M. tuberculosis H37Rv is 7 µM (≈ 3.41 µg/mL).

In general, IC50 refers to the concentration that gives 50% inhibition. Read a low IC50 as greater potency.
